Measured values taken from US6462037B1, “1,4-benzodiazepin-2-ones useful as HIV reverse transcriptase inhibitors” (Bristol-Myers Squibb Pharma Company, priority 1999, dated 2002).

`Cc1ncc(CN2CC(=O)Nc3ccc(Cl)cc3C2C(F)(F)F)s1` (stereo not shown) [compound 103, 7-Chloro-4-(2-methyl-5-thiazolylmethyl)-1,5-dihydro-5-(trifluoromethyl)-1,4-benzodiazepin-2-one] gave a melting point of 196 to 220 °C. With `O=C1CN(Cc2cccc(F)c2F)C(C(F)(F)F)c2cc(Cl)ccc2N1` (stereo not shown) [compound 147, 7-Chloro-4-(2,3-difluorobenzyl)-1,5-dihydro-5-(trifluoromethyl)-1,4-benzodiazepin-2-one] the melting point was 182 to 183 °C. In the case of `C=CCCCN1CC(=O)Nc2ccc(Cl)cc2C1C(F)(F)F` (stereo not shown) [compound 152, 7-Chloro-4-(4-penten-1-yl)-1,5-dihydro-5-(trifluoromethyl)-1,4-benzodiazepin-2-one], the melting point was 86 to 87 °C. `O=C1C=NC(Cc2ccccn2)(C(F)(F)F)c2cc(Cl)ccc2N1` (stereo not shown) [compound 202, 7-Chloro-5-(2-pyridylmethyl)-1,5-dihydro-5-(trifluoromethyl)-1,4-benzodiazepin-2-one] showed a melting point of 137 to 140 °C. `CCCCCN1CC(=O)Nc2ccc(Cl)cc2C1C(F)(F)F` (stereo not shown) [compound 108, 7-Chloro-4-pentyl-1,5-dihydro-5-(trifluoromethyl)-1,4-benzodiazepin-2-one] gave a melting point of 114 to 115 °C. For `O=C1CN(Cc2ccsc2)C(C(F)(F)F)c2cc(Cl)ccc2N1` (stereo not shown) [compound 123, 7-Chloro-4-(3-thienylmethyl)-1,5-dihydro-5-(trifluoromethyl)-1,4-benzodiazepin-2-one], the melting point was 148 to 150 °C. In the case of `CC1=NC(CCC2CC2)(C(F)(F)F)c2cc(Cl)ccc2NC1=O` (stereo not shown) [compound 194, 7-Chloro-3-methyl-5-(2-cyclopropylethyl)-1,5-dihydro-5-(trifluoromethyl)-1,4-benzodiazepin-2-one], the melting point was 146 to 148 °C. Compound `O=C1C=NC(CCCC(F)(F)F)(C(F)(F)F)c2cc(Cl)ccc2N1` (stereo not shown) [compound 197, 7-Chloro-5-(4,4,4-trifluorobutyl)-1,5-dihydro-5-(trifluoromethyl)-1,4-benzodiazepin-2-one] has a melting point of 178 to 180 °C. `O=C1C=NC(CC2CC2)(C(F)(F)F)c2cc(Cl)ccc2N1` (stereo not shown) [compound 196, 7-Chloro-5-(cyclopropylmethyl)-1,5-dihydro-5-(trifluoromethyl)-1,4-benzodiazepin-2-one] showed a melting point of 105 to 108 °C. Work on `O=C1C=NC(CC(=O)C2CC2)(C(F)(F)F)c2cc(Cl)ccc2N1` (stereo not shown) [compound 167, 7-Chloro-5-(2-cyclopropyl-2-ethanonyl)-1,5-dihydro-5-(trifluoromethyl)-1,4-benzodiazepin-2-one] yielded a melting point of 148 to 149 °C. In the case of `O=C1CN(Cc2c(F)cccc2F)C(C(F)(F)F)c2cc(Cl)ccc2N1` (stereo not shown) [compound 117, 7-Chloro-4-(2,6-difluorobenzyl)-1,5-dihydro-5-(trifluoromethyl)-1,4-benzodiazepin-2-one], the melting point was 173 to 174 °C. `O=C1C=NC(Cc2ccccc2)(C(F)(F)F)c2cc(Cl)ccc2N1` (stereo not shown) [compound 190, 7-Chloro-5-benzyl-1,5-dihydro-5-(trifluoromethyl)-1,4-benzodiazepin-2-one] showed a melting point of 160 to 162 °C. Compound `CCCC#CCN1CC(=O)Nc2ccc(Cl)cc2C1C(F)(F)F` (stereo not shown) [compound 129, 7-Chloro-4-(2-hexynyl)-1,5-dihydro-5-(trifluoromethyl)-1,4-benzodiazepin-2-one] has a melting point of 96 to 98 °C. Compound `CC(C)C#CC1(C(F)(F)F)N=CC(=O)Nc2ccc(Cl)cc21` (stereo not shown) [compound 134, 7-Chloro-5-(3-methyl-1-butynyl)-1,5-dihydro-5-(trifluoromethyl)-1,4-benzodiazepin-2-one] has a melting point of 185 to 187 °C. In the case of `O=C1CN(CC#CC2CC2)C(C(F)(F)F)c2cc(Cl)ccc2N1` (stereo not shown) [compound 127, 7-Chloro-4-(3-cyclopropyl-2-propynyl)-1,5-dihydro-5-(trifluoromethyl)-1,4-benzodiazepin-2-one], the melting point was 121 to 123 °C. For `COc1cccc(CN2CC(=O)Nc3ccc(Cl)cc3C2C(F)(F)F)c1` (stereo not shown) [compound 118, 7-Chloro-4-(3-methoxybenzyl)-1,5-dihydro-5-(trifluoromethyl)-1,4-benzodiazepin-2-one], the melting point was 171 to 172 °C.
